Source: ChEMBL document CHEMBL2346633, “Design, synthesis, and binding mode prediction of 2-pyridone-based selective CB2 receptor agonists” (Bioorg Med Chem, 2013)

Tests used:
Cannabinoid receptor 2 [1] = biological target: T1, Cannabinoid receptor 2 (Homo sapiens, UniProt P34972); assay: Displacement of [H3]-CP-55940 from human recombinant CB2 receptor expressed in CHO cells; format: cell-based
Cannabinoid receptor 1 = Cannabinoid receptor 1 (Homo sapiens, UniProt P21554); assay: Displacement of [H3]-CP-55940 from human recombinant CB1 receptor expressed in CHO cells; format: cell-based
Sequence of Cannabinoid receptor 1 (P21554 whole entry, looked up): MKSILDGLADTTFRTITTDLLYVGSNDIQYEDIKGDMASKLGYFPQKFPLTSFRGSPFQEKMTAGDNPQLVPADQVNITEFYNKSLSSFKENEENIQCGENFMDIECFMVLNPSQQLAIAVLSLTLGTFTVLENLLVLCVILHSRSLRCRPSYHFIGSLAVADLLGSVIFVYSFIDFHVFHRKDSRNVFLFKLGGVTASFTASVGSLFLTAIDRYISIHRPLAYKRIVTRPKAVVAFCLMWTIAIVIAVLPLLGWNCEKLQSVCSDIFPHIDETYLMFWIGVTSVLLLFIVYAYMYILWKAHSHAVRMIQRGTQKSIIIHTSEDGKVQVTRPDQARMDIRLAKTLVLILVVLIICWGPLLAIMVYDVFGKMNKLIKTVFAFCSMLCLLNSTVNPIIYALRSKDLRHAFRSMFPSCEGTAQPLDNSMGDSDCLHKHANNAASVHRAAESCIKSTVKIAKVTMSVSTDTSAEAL

Cannabinoid receptor 2 [2] = biological target: T1, Cannabinoid receptor 2; assay: Agonist activity at human recombinant CB2 receptor expressed in CHO cells assessed as inhibition of forskolin-induced accumulation of cAMP; format: functional, cell-based
Homo sapiens = organism: Homo sapiens; assay: Selectivity ratio of Ki for human recombinant CB1 receptor to Ki for human recombinant CB2 receptor

T1 sequence (P34972 whole entry): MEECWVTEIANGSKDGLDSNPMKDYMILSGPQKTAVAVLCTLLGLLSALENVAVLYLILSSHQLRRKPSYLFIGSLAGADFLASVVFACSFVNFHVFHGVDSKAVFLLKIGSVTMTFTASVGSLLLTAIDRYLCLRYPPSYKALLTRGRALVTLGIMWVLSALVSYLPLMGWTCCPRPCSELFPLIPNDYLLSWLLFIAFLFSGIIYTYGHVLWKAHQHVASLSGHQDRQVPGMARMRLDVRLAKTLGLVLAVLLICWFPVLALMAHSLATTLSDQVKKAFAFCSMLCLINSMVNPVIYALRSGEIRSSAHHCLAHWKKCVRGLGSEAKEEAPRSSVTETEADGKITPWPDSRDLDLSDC

Row | Compound | Ki (Cannabinoid receptor 2 [1]) | Ki (Cannabinoid receptor 1) | IC50 (Cannabinoid receptor 2 [2]) | Ratio Ki (Homo sapiens)
1 | CCCCCn1c(C)c(C)cc(Oc2nc3ccccc3o2)c1=S | 0.214 µM | – | – | –
2 | CCCCn1c(C)c(C)cc(NC(=O)c2ccc3ccccc3c2)c1=O | 0.768 µM | > 5 µM | – | –
3 | CCCCn1c(C)c(C)cc(NC(C)=O)c1=O | > 5 µM | > 5 µM | – | –
4 | CCn1c(C)c(C)cc(Oc2nc3ccccc3o2)c1=S | 3.85 µM | – | – | –
5 | CCCCn1c(C)c(C)cc(NC(=O)c2ccccc2)c1=O | 0.089 µM | 1.38 µM | – | –
6 | CCCCn1c(C)c(C)cc(NC(=O)c2ccccc2C)c1=O | – | 0.39 µM | 0.013 µM | –
7 | CCCCn1c(C)c(C)cc(NC(=O)c2ccccc2Cl)c1=O | – | 0.391 µM | – | –
8 | CCCCn1cc(C)cc(Oc2nc3ccccc3o2)c1=S | 0.236 µM | – | – | –
9 | CCCCn1cccc(Oc2nc3ccccc3o2)c1=S | 0.49 µM | – | – | –
10 | CCCCn1c(C)c(C)cc(NC(=O)Cc2ccccc2)c1=O | 1.31 µM | > 5 µM | – | –
11 | CCCCn1ccc(C)c(Oc2nc3ccccc3o2)c1=S | 0.235 µM | – | – | –
12 | CCCCn1c(C)c(C)cc(NC(=O)c2ccc(C)cc2)c1=O | 0.072 µM | 0.854 µM | – | –
13 | CCCCn1c(C)c(C)cc(Oc2nc3ccccc3o2)c1=O | 0.976 µM | – | – | –
14 | CCN1C(=O)C(Sc2nc3ccccc3o2)c2ccccc2C1C (stereo unspecified) | 0.042 µM | > 5 µM | – | –
15 | CN1CCCCC1Cn1cc(C(=O)c2cc([N+](=O)[O-])ccc2I)c2ccccc21 (stereo unspecified) | – | – | – | 80
16 | CCCCn1c(C)c(C)cc(NC(=O)c2ccccc2F)c1=O | 0.088 µM | 0.617 µM | – | –
17 | CCCCn1c(C)c(C)cc(NC(=O)c2cccc3ccccc23)c1=O | 0.012 µM | 0.019 µM | – | 1.6
18 | CCCn1c(C)c(C)cc(Oc2nc3ccccc3o2)c1=S | 0.276 µM | – | – | –
19 | CCCCn1c(C)c(C)cc(NC(=O)c2cccc(C)c2)c1=O | 0.042 µM | 0.343 µM | – | –
20 | CCCCCCn1c(C)c(C)cc(Oc2nc3ccccc3o2)c1=S | 0.609 µM | – | – | –
